Data as given in patent publication US20110092547A1 (priority 2007, published 2011).

Each compound was assayed against T1, human DGAT1 (Homo sapiens, UniProt O75907) (assay: Human enzyme assay, further developed assay (14C oleoyl CoA, 96 well plate)). Settings: human DGAT1 expressed in insect cell (sf9) membranes.
T1 construct: made in house; host or cells: Sf9 insect cells (recombinant baculovirus); membrane fraction
T1 sequence (O75907 1-488): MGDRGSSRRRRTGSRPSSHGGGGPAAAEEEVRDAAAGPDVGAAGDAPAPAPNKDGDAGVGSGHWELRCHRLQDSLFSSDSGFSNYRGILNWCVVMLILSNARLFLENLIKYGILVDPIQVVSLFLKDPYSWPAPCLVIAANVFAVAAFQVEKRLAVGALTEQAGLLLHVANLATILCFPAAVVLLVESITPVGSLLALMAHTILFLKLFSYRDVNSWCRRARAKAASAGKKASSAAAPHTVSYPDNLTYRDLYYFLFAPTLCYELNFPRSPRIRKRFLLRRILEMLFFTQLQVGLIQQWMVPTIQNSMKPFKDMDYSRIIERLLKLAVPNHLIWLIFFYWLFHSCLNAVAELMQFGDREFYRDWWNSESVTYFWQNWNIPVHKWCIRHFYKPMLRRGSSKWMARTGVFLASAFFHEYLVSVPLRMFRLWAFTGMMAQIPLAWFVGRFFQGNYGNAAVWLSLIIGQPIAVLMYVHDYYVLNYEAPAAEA
Type: biochemical
Procedure: The in vitro assay to identify DGAT1 inhibitors uses human DGAT1 expressed in insect cell membranes as the enzyme source (Proc. Natl. Acad. Sci. 1998, 95, 13018-13023). Briefly, sf9 cells were infected with recombinant baculovirus containing human DGAT1 coding sequences and harvested after 48 h. Cells were lysed by sonication and membranes isolated by centrifuging at 28000 rpm for 1 h at 4° C. on a 41% sucrose gradient. The membrane fraction at the interphase was collected, washed, and stored in liquid nitrogen.
In a further developed assay, DGAT1 activity was assayed by a modification of the method described by Coleman (Methods in Enzymology 1992, 209, 98-102). Compound at 0.00003-10 μM (final cone) was incubated with 25 μg/ml (final cone) membrane protein, 5 mM MgCl2, and 100 μM 1,2 dioleoyl-sn-glycerol in a total assay volume of 200 μl in a 96 well plate. The reaction was started by adding ^14C oleoyl coenzyme A (30 μM final concentration) and incubated at room temperature for 30 minutes. The reaction was stopped by adding 300 μl 2-propanol:heptane 7:1. Radioactive triolein product was separated into the organic phase by adding 200 μl heptane and 200 μl 0.1 M carbonate buffer pH 9.5. DGAT1 activity was quantified by counting aliquots of the upper heptane layer by liquid scintillography.

| Structure (SMILES) | IC50 |
| --- | --- |
| CS(=O)(=O)NC(=O)[C@H]1CC[C@@H](Oc2ccc(NC(=O)c3nnc(Nc4ccc(F)c(F)c4)o3)cn2)CC1 [Example 45, 5-(3,4-Difluorophenylamino)-N-(6-((1s,4s)-4-(methylsulfonylcarbamoyl)cyclohexyloxy)pyridin-3-yl)-1,3,4-oxadiazole-2-carboxamide] | 6.4 nM |
| O=C(Nc1ccc(O[C@H]2C[C@H](C(=O)O)C2)nc1)c1nnc(Nc2ccc(F)c(F)c2)o1 [Example 66, trans-3-(5-(5-(3,4-difluorophenylamino)-1,3,4-oxadiazole-2-carboxamido)pyridin-2-yloxy)cyclobutanecarboxylic acid] | 2.1 nM |
| O=C(Nc1ccc(O[C@H]2CC[C@H](C(=O)O)CC2)nc1)c1nnc(Nc2ccc(F)c(F)c2)o1 [Example 32, (1r,4r)-4-(5-(5-(3,4-difluoro-phenylamino)-1,3,4-oxadiazole-2-carboxamido)pyridin-2-yloxy)cyclo-hexane-carboxylic acid] | 26 nM |
| COc1cc(Cl)ccc1Nc1nnc(C(=O)Nc2ccc(O[C@H]3CC[C@@H](C(=O)O)CC3)nc2)o1 [Example 71, (1s,4s)-4-(5-(5-(4-Chloro-2-methoxyphenylamino)-1,3,4-oxadiazole-2-carboxamido)pyridin-2-yloxy)cyclohexanecarboxylic acid] | 34 nM |
| O=C(Nc1ccc(O[C@H]2CC[C@@H](C(=O)O)CC2)nc1)c1nnc(Nc2ccc(Br)cc2Cl)o1 [Example 13, (1s,4s)-4-(5-(5-(4-bromo-2-chlorophenylamino)-1,3,4-oxadiazole-2-carboxamido)pyridin-2-yloxy)cyclohexanecarboxylic acid] | 11 nM |
| O=C(Nc1cnc(O[C@H]2CC[C@@H](C(=O)O)CC2)cc1F)c1nnc(Nc2ccc(F)c(F)c2)o1 [Example 59, (1s,4s)-4-(5-(5-(3,4-Difluorophenylamino)-1,3,4-oxadiazole-2-carboxamido)-4-fluoropyridin-2-yloxy)cyclohexanecarboxylic acid] | 8.6 nM |
| COc1cc(NC(=O)c2nnc(Nc3ccc(F)c(Cl)c3)o2)cnc1O[C@H]1CC[C@@H](C(=O)O)CC1 [Example 56, (1s,4s)-4-(5-(5-(3-Chloro-4-fluorophenylamino)-1,3,4-oxadiazole-2-carboxamido)-3-methoxypyridin-2-yloxy)cyclohexanecarboxylic acid] | 150 nM |
| COC[C@]1(C(=O)O)CC[C@H](Oc2ccc(NC(=O)c3nnc(Nc4cc(F)c(F)cc4F)o3)cn2)CC1 [Example 3, 1-(Methoxymethyl)-4-(5-(5-(2,4,5-trifluorophenylamino)-1,3,4-oxadiazole-2-carboxamido)pyridin-2-yloxy)cyclohexanecarboxylic acid] | 35 nM |
| O=C(Nc1cnc(O[C@H]2CC[C@@H](C(=O)O)CC2)c(Cl)c1)c1nnc(Nc2ccc(F)c(F)c2)o1 [Example 47, (1s,4s)-4-(3-Chloro-5-(5-(3,4-difluorophenylamino)-1,3,4-oxadiazole-2-carboxamido)pyridin-2-yloxy)cyclohexanecarboxylic acid] | 22 nM |
| Cc1nc(O[C@H]2CC[C@@H](C(=O)O)CC2)ccc1NC(=O)c1nnc(Nc2ccc(F)c(F)c2)o1 [Example 62, (1s,4s)-4-(5-(5-(3,4-Difluorophenylamino)-1,3,4-oxadiazole-2-carboxamido)-6-methylpyridin-2-yloxy)cyclohexanecarboxylic acid] | 58 nM |
| O=C(Nc1ccc(O[C@H]2CC[C@H](C(=O)O)CC2)nc1)c1nnc(Nc2ccc(Cl)cc2Cl)o1 [Example 23, (1r,4r)-4-(5-(5-(2,4-dichloro-phenylamino)-1,3,4-oxadiazole-2-carboxamido)pyridin-2-yloxy)cyclo-hexane-carboxylic acid] | 21 nM |
| COc1cc(NC(=O)c2nnc(Nc3ccc(F)c(F)c3)o2)cnc1O[C@H]1CC[C@@H](C(=O)O)CC1 [Example 57, (1s,4s)-4-(5-(5-(3,4-Difluorophenylamino)-1,3,4-oxadiazole-2-carboxamido)-3-methoxypyridin-2-yloxy)cyclohexanecarboxylic acid] | 410 nM |
| COc1nc(O[C@H]2CC[C@@H](C(=O)O)CC2)ccc1NC(=O)c1nnc(Nc2ccc(F)c(Cl)c2)o1 [Example 52, (1s,4s)-4-(5-(5-(3-Chloro-4-fluorophenylamino)-1,3,4-oxadiazole-2-carboxamido)-6-methoxypyridin-2-yloxy)cyclohexanecarboxylic acid] | 23 nM |
| O=C(Nc1ccc(O[C@H]2CC[C@H](C(=O)O)CC2)nc1)c1nnc(Nc2cccc(Cl)c2Cl)o1 [Example 28, (1r,4r)-4-(5-(5-(2,3-dichloro-phenylamino)-1,3,4-oxadiazole-2-carboxamido)pyridin-2-yloxy)cyclo-hexane-carboxylic acid] | 16 nM |
| O=C(Nc1ccc(O[C@H]2CC[C@H](C(=O)O)CC2)nc1)c1nnc(Nc2ccc(OC(F)(F)F)cc2)o1 [Example 25, (1r,4r)-4-(5-(5-(4-(trifluoro-methoxy)phenylamino)-1,3,4-oxadiazole-2-carboxamido)pyridin-2-yloxy)cyclo-hexane-carboxylic acid] | 52 nM |
| COc1cc(O[C@H]2CC[C@@H](C(=O)O)CC2)ncc1NC(=O)c1nnc(Nc2ccc(F)c(F)c2)o1 [Example 43, (1s,4s)-4-(5-(5-(3,4-Difluorophenylamino)-1,3,4-oxadiazole-2-carboxamido)-4-methoxypyridin-2-yloxy)cyclohexanecarboxylic acid] | 50 nM |
| C[C@]1(C(=O)O)CC[C@@H](Oc2ccc(NC(=O)c3nnc(Nc4ccc(F)c(F)c4)o3)cn2)CC1 [Example 68, (1s,4s)-4-(5-(5-(3,4-Difluorophenylamino)-1,3,4-oxadiazole-2-carboxamido)pyridin-2-yloxy)-1-methylcyclohexanecarboxylic acid] | 8.3 nM |
| CC(C)c1ccc(Nc2nnc(C(=O)Nc3ccc(O[C@H]4C[C@H](C(=O)O)C4)nc3)o2)cc1 [Example 64] | 1.9 nM |
| O=C(Nc1ccc(O[C@H]2CC[C@@H](C(=O)O)CC2)nc1)c1nnc(Nc2ccc(F)c(C(F)(F)F)c2)o1 [Example 8, (1s,4s)-4-(5-(5-(4-fluoro-3-(trifluoromethyl)phenylamino)-1,3,4-oxadiazole-2-carboxamido)pyridin-2-yloxy)cyclohexanecarboxylic acid] | 10 nM |
| O=C(Nc1ccc(O[C@H]2CC[C@@H](C(=O)O)CC2)nc1)c1nnc(Nc2cccc(OC(F)(F)F)c2)o1 [Example 6, (1s,4s)-4-(5-(5-(3-(trifluoromethoxy)phenylamino)-1,3,4-oxadiazole-2-carboxamido)pyridin-2-yloxy)cyclohexanecarboxylic acid] | 23 nM |
| CC(C)c1ccc(Nc2nnc(C(=O)Nc3ccc(O[C@H]4CC[C@H](C(=O)O)CC4)nc3)o2)cc1 [Example 30, (1r,4r)-4-(5-(5-(4-isopropyl-phenylamino)-1,3,4-oxadiazole-2-carboxamido)pyridin-2-yloxy)cyclo-hexane-carboxylic acid] | 17 nM |
| O=C(Nc1ccc(O[C@H]2CC[C@H](C(=O)O)CC2)nc1)c1nnc(Nc2ccc(Br)cc2Cl)o1 [Example 33, (1r,4r)-4-(5-(5-(4-bromo-2-chloro-phenylamino)-1,3,4-oxadiazole-2-carboxamido)pyridin-2-yloxy)cyclo-hexane-carboxylic acid] | 22 nM |
| Cc1cc(NC(=O)c2nnc(Nc3ccc(F)c(F)c3)o2)cnc1O[C@H]1CC[C@@H](C(=O)O)CC1 [Example 17, (1s,4s)-4-(5-(5-(3,4-difluorophenylamino)-1,3,4-oxadiazole-2-carboxamido)-3-methylpyridin-2-yloxy)cyclohexanecarboxylic acid] | 27 nM |
| O=C(O)C[C@H]1CC[C@@H](Oc2ccc(NC(=O)c3nnc(Nc4ccc(Cl)cc4Cl)o3)cn2)CC1 [Example 54, 2-((1s,4s)-4-(5-(5-(2,4-Dichlorophenylamino)-1,3,4-oxadiazole-2-carboxamido)pyridin-2-yloxy)cyclohexyl)acetic acid] | 8.3 nM |
| Cc1cc(OC2CCC(C(=O)O)CC2)ncc1NC(=O)c1nnc(Nc2ccc(F)c(Cl)c2)o1 (centres unmarked) [Example 41, (1s,4s)-4-(5-(5-(3-Chloro-4-fluorophenylamino)-1,3,4-oxadiazole-2-carboxamido)-4-methylpyridin-2-yloxy) cyclohexanecarboxylic acid] | 3.4 nM |
| CC(C)c1ccc(Nc2nnc(C(=O)Nc3ccc(O[C@H]4C[C@@H](C(=O)O)C4)nc3)o2)cc1 [Example 63] | 30 nM |
